These results are taken from PubChem BioAssay (NCI).

The assay has as its system P388/ADR leukemia. In words: NCI tumour cell line growth inhibition, 48 h.

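Growth conditions: 96-well plates. Treatment: test compound, 48 hours, 5 concentrations. Analysis: linear interpolation between bracketing concentrations; unreached endpoints set to highest concentration. TGI denotes the concentration required for complete inhibition of growth.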

In turn, `C=C(C)C(=O)NC(N)=NC#N` showed a TGI of 27.7 µM.
